# Results published in US20250134890A1, “ANTIMALARIAL HEXAHYDROPYRIMIDINE ANALOGUES” (UCB BIOPHARMA SRL, priority 2022, published 2025).
# Structures can show the parent of a compound that is named as a salt.
# Test system: Plasmodium falciparum: 3D7 strain
# Assay: P. falciparum 3D7 asexual blood stage assay (SYBR green readout)
# Type: cell-based
# Settings: P. falciparum 3D7 in human erythrocytes, 72 h incubation, SYBR green fluorescence; hydrochloride
# In short: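 3D7-infected erythrocytes (5% haematocrit, 0.5% parasitaemia) were exposed 72 h at 37 °C under 1% O2/3% CO2 to a 20-point titration (50,000-15 nM final, 0.5% DMSO). Parasite DNA was read by SYBR green fluorescence after overnight lysis. Percent inhibition was set against mefloquine and DMSO, and EC50 came from a biphasic two-site fit.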
row,Compound,IC50 [nM]
1,"C[C@H]1C[C@@H](N2C(=N)N[C@](C)(c3cccc(-c4cccc(C(O)C(F)F)c4)c3Cl)CC2=O)CCO1 (single isomer, unassigned) [Example 26, (6S)-6-(2-Chloro-3-{3-[(1S*)-2,2-difluoro-1-hydroxyethyl]phenyl}-phenyl)-2-imino-6-methyl-3-[(2S,4S)-2-methyltetrahydropyran-4-yl]hexahydropyrimidin-4-one hydrochloride]",55

# Same assay, conditions: Plasmodium falciparum, 3D7, Erythrocyte, 72 h, P. falciparum 3D7 in human erythrocytes, 72 h incubation, SYBR green fluorescence
row,Compound,IC50 [nM]
1,"C[C@H]1C[C@@H](N2C(=N)N[C@](C)(c3cccc(-c4ccc(F)cc4F)c3Cl)CC2=O)CCN1C (relative stereo) [Example 106, (6S)-6-[2-Chloro-3-(2,4-difluoro-phenyl)phenyl]-3-[(2S*,4S*)-1,2-dimethylpiperidin-4-yl]-2-imino-6-methylhexahydropyrimidin-4-one hydrochloride]",94
2,"C[C@@H]1C[C@H](N2C(=N)N[C@](C)(c3cccc(-c4ccc(F)cc4F)c3Cl)CC2=O)CCN1C (relative stereo) [Example 107, (6S)-6-[2-Chloro-3-(2,4-difluoro-phenyl)phenyl]-3-[(2R*,4R*)-1,2-dimethylpiperidin-4-yl]-2-imino-6-methylhexahydropyrimidin-4-one hydrochloride]",228
3,"C[C@@]1(c2cccc(-c3cn(-c4cccc(F)c4)nn3)c2Cl)CC(=O)N([C@H]2CCC(F)(F)[C@@H](O)C2)C(=N)N1 (relative stereo) [Example 108, (6S)-6-{2-Chloro-3-[1-(3-fluoro-phenyl)-1,2,3-triazol-4-yl]phenyl}-3-[(1S*,3S*)-4,4-difluoro-3-hydroxycyclohexyl]-2-imino-6-methylhexahydropyrimidin-4-one hydrochloride]",325
4,"C[C@H]1C[C@@H](N2C(=N)N[C@](C)(c3cccc(-c4cn(-c5cc(F)c(F)cc5F)nn4)c3Cl)CC2=O)CC[C@H]1O (relative stereo) [Example 112, (6S)-6-{2-Chloro-3-[1-(2,4,5-trifluorophenyl)-1,2,3-triazol-4-yl]-phenyl}-3-[(1S*,3S*,4R*)-4-hydroxy-3-methylcyclohexyl]-2-imino-6-methylhexahydro-pyrimidin-4-one hydrochloride]",132
5,"C[C@@H]1C[C@H](N2C(=N)N[C@](C)(c3cccc(-c4cn(-c5cc(F)c(F)cc5F)nn4)c3Cl)CC2=O)CC[C@@H]1O (relative stereo) [Example 113, (6S)-6-{2-Chloro-3-[1-(2,4,5-trifluorophenyl)-1,2,3-triazol-4-yl]-phenyl}-3-[(1R*,3R*,4S*)-4-hydroxy-3-methylcyclohexyl]-2-imino-6-methylhexahydro-pyrimidin-4-one hydrochloride]",540
6,"C[C@H]1C[C@@H](N2C(=N)N[C@](C)(c3cccc(-c4cccc(C(O)C(F)F)c4)c3Cl)CC2=O)CCO1 (single isomer, unassigned) [Example 25, (6S)-6-(2-Chloro-3-{3-[(1R*)-2,2-difluoro-1-hydroxyethyl]phenyl}-phenyl)-2-imino-6-methyl-3-[(2S,4S)-2-methyltetrahydropyran-4-yl]hexahydropyrimidin-4-one hydrochloride]",38
7,"C[C@H]1C[C@@H](N2C(=N)N[C@](C)(c3cccc(-c4cccc(C(O)C(F)(F)F)c4)c3Cl)CC2=O)CCO1 (single isomer, unassigned) [Example 28, (6S)-6-(2-Chloro-3-{3-[(1S*)-2,2,2-trifluoro-1-hydroxyethyl]phenyl}-phenyl)-2-imino-6-methyl-3-[(2S,4S)-2-methyltetrahydropyran-4-yl]hexahydropyrimidin-4-one hydrochloride]",26
8,"C[C@@]1(c2cccc(-c3cccc(Cl)c3)c2Cl)CC(=O)N(C(CO)C2CC2)C(=N)N1 (single isomer, unassigned) [Example 94, (6S)-6-[2-Chloro-3-(3-chloro-phenyl)phenyl]-3-[(1R*)-1-cyclopropyl-2-hydroxyethyl]-2-imino-6-methylhexahydro-pyrimidin-4-one hydrochloride]",88
9,"C[C@H]1C[C@@H](N2C(=N)N[C@](C)(c3cccc(-c4cncc(Cl)c4)c3Cl)CC2=O)CCO1 [Example 1, (6S)-6-[2-Chloro-3-(5-chloro-pyridin-3-yl)phenyl]-2-imino-6-methyl-3-[(2S,4S)-2-methyl-tetrahydropyran-4-yl]hexahydro-pyrimidin-4-one hydrochloride]",22
10,"C[C@H]1C[C@@H](N2C(=N)N[C@](C)(c3cccc(-c4ccc(OC(F)(F)F)cc4Cl)c3Cl)CC2=O)CCO1 [Example 2, (6S)-6-{2-Chloro-3-[2-chloro-4-(trifluoromethoxy)phenyl]phenyl}-2-imino-6-methyl-3-[(2S,4S)-2-methyltetrahydropyran-4-yl]-hexahydropyrimidin-4-one hydrochloride]",78
11,"C[C@H]1C[C@@H](N2C(=N)N[C@](C)(c3cccc(-c4cccc(S(C)(=O)=O)c4)c3Cl)CC2=O)CCO1 [Example 4, (6S)-6-[2-Chloro-3-(3-methyl-sulfonylphenyl)phenyl]-2-imino-6-methyl-3-[(2S,4S)-2-methyl-tetrahydropyran-4-yl]hexahydro-pyrimidin-4-one hydrochloride]",17
12,"C[C@H]1C[C@@H](N2C(=N)N[C@](C)(c3cccc(-c4cccc(P(C)(C)=O)c4)c3Cl)CC2=O)CCO1 [Example 5, (6S)-6-[2-Chloro-3-(3-dimethyl-phosphorylphenyl)phenyl]-2-imino-6-methyl-3-[(2S,4S)-2-methyl-tetrahydropyran-4-yl]hexahydro-pyrimidin-4-one hydrochloride]",101
13,"C[C@H]1C[C@@H](N2C(=N)N[C@](C)(c3cccc(-c4ccc5ncn(CC(F)(F)F)c5c4)c3Cl)CC2=O)CCO1 [Example 6, (6S)-6-{2-Chloro-3-[3-(2,2,2-trifluoroethyl)benzimidazol-5-yl]-phenyl}-2-imino-6-methyl-3-[(2S,4S)-2-methyltetrahydropyran-4-yl]hexahydropyrimidin-4-one hydrochloride]",26
14,"C[C@H]1C[C@@H](N2C(=N)N[C@](C)(c3cccc(-c4cccc(NS(C)(=O)=O)c4)c3Cl)CC2=O)CCC1(F)F [Example 13, N-[3-(2-Chloro-3-{(4S)-1-[(1S,3S)-4,4-difluoro-3-methylcyclohexyl]-2-imino-4-methyl-6-oxohexahydro-pyrimidin-4-yl}phenyl)phenyl]-methanesulfonamide trifluoroacetic acid salt]",10
15,"C[C@H]1C[C@@H](N2C(=N)N[C@](C)(c3cccc(-c4ccc(NS(C)(=O)=O)cc4)c3Cl)CC2=O)CCC1(F)F [Example 14, N-[4-(2-Chloro-3-{(4S)-1-[(1S,3S)-4,4-difluoro-3-methylcyclohexyl]-2-imino-4-methyl-6-oxohexahydro-pyrimidin-4-yl}phenyl)phenyl]-methanesulfonamide trifluoroacetic acid salt]",97
16,"C[C@H]1C[C@@H](N2C(=N)N[C@](C)(c3cccc(-c4ccc(Cl)cc4F)c3Cl)CC2=O)CCO1 [Example 15, (6S)-6-[2-Chloro-3-(4-chloro-2-fluorophenyl)phenyl]-2-imino-6-methyl-3-[(2S,4S)-2-methyl-tetrahydropyran-4-yl]hexahydro-pyrimidin-4-one trifluoroacetic acid salt]",142
17,"C[C@H]1C[C@@H](N2C(=N)N[C@](C)(c3cccc(-c4ccc(Cl)cc4Cl)c3Cl)CC2=O)CCO1 [Example 16, (6S)-6-[2-Chloro-3-(2,4-dichloro-phenyl)phenyl]-2-imino-6-methyl-3-[(2S,4S)-2-methyltetrahydro-pyran-4-yl]hexahydropyrimidin-4-one trifluoroacetic acid salt]",66
18,"C[C@H]1C[C@@H](N2C(=N)N[C@](C)(c3cccc(-c4cccc(Cl)c4)c3Cl)CC2=O)CCO1 [Example 17, (6S)-6-[2-Chloro-3-(3-chloro-phenyl)phenyl]-2-imino-6-methyl-3-[(2S,4S)-2-methyltetrahydro-pyran-4-yl]hexahydropyrimidin-4-one trifluoroacetic acid salt]",92
19,"C[C@H]1C[C@@H](N2C(=N)N[C@](C)(c3cccc(-c4ccc(N=S(C)(C)=O)cc4F)c3Cl)CC2=O)CCC1(F)F [Example 18, (6S)-6-[2-Chloro-3-(4-{[(dimethyl)-(oxo)-λ^6-sulfanylidene]amino}-2-fluorophenyl)phenyl]-3-[(1S,3S)-4,4-difluoro-3-methylcyclohexyl]-2-imino-6-methylhexahydro-pyrimidin-4-one hydrochloride]",292
20,"C[C@H]1C[C@@H](N2C(=N)N[C@](C)(c3cccc(-c4ccc(P(C)(C)=O)cc4F)c3Cl)CC2=O)CCC1(F)F [Example 19, (6S)-6-[2-Chloro-3-(4-dimethyl-phosphoryl-2-fluorophenyl)-phenyl]-3-[(1S,3S)-4,4-difluoro-3-methylcyclohexyl]-2-imino-6-methylhexahydropyrimidin-4-one hydrochloride]",386

# Same assay, conditions: Plasmodium falciparum, Erythrocyte; P. falciparum 3D7 in human erythrocytes, 72 h incubation, SYBR green fluorescence; read-out: IC50
row,IC50 [nM],Compound
1,657,"CN(C)[C@H]1C[C@H](N2C(=N)N[C@](C)(c3cccc(-c4ccc(F)cc4F)c3Cl)CC2=O)C1 (single isomer, unassigned; isomer 1) [Example 88]"
2,7950,"CN(C)[C@H]1C[C@@H](N2C(=N)N[C@](C)(c3cccc(-c4ccc(F)cc4F)c3Cl)CC2=O)C1 (single isomer, unassigned; isomer 2) [Example 89]"
3,90,"C[C@H]1C[C@@H](N2C(=N)N[C@](C)(c3cccc(-c4cccc(N=S(C)(C)=O)c4)c3Cl)CC2=O)CCO1 [Example 3, (6S)-6-[2-Chloro-3-(3-{[(dimethyl)-(oxo)-26-sulfanylidene]amino}-phenyl)phenyl]-2-imino-6-methyl-3-[(2S,4S)-2-methyltetrahydro-pyran-4-yl]hexahydropyrimidin-4-one hydrochloride]"
